Assay results as given in patent US20110124888A1, “STYRYLBENZOFURAN DERIVATIVES AS INHIBITORS FOR BETA-AMYLOID FIBRIL FORMATION AND PREPARATION METHOD THEREOF” (Korea Institute of Science and Technology, priority 2008, published 2011).

Experiments:
[1] = Passage test through the blood-brain barrier in rats (brain tissue); assay type: in vivo, SD rats; settings: for Cmax (brain) / Tmax: brain tissue; for Tmax / Kp: SD, rat; for Kp: brain, read-out: AUCBrain/AUC Plasma
Experimental: (§1) 1) Test Animal and Administration of Test Compound
(§2) Three 7 week-old ICR mice (weight: about 30 g) and three 8 week-old SD rats (weight: about 250 g) were used per test group. A solution prepared by dissolving the compounds of Examples 9 and 17 in excipient (DMSO/Tween 20/saline: 0.1/0.6/2.3, v/v/v) were administered to each experimental animal. The test compound was orally administered in an amount of 10 mL per kg of body weight or intravenously administered in an amount of 5 mL per kg of body weight through the fine vein.
(§3) 2) Measurement of Concentration in Blood and Tissue (Simultaneous Test)
(§4) At 30 min, 1 hr, 2 hr, 4 hr, 10 hr and 24 hr after administration of test compound, the mice and rats were subjected to insufflations narcosis using isoflorane, followed by cutting the abdomen open. 1 mL of blood was collected from abdominal veins into the tube containing heparin (1000 IU/mL, 3 μl). The obtained blood sample was centrifuged at 12,000 rpm, for 2 min to obtain plasma. The obtained plasma was kept in freezer at −80° C. until the analysis.
(§5) (2) Organ Tissue-Sampling
(§6) The mice and rats from which the blood sample was obtained were subjected to bloodletting, and then, brain tissue of the mice and rats was collected. The brain tissue thus obtained was washed with physiological saline once or twice to remove blood. The weight of the brain tissue was measured after the removal of adipose tissue and peripheral tissue. 4% bovine serum albumin (BSA) solution diluted with 10-fold was added to the brain tissue. The resulting solution was subjected to homogenization using the homogenizer. The diluted homogenate thus obtained was placed in 2 ml of tube and was kept in freezer at −80° C. until the analysis. All of the treatments to the samples were performed in ice.
(§7) The sample was analyzed using LC/MSMS system under the following condition:
(§8) The sample was pretreated as follows:
(§9) 50 μL of plasma were placed in 2.0 mL of tube having a cap (Eppendorf Co.) and acidified by adding 20 μL of 0.1% formic acid thereto. An internal standard solution and 1 mL of ethyl acetate as an extract solvent were added to the resultant solution. The resultant solution was mixed using thermomixer (Eppendorf Co.) at 1400 rpm for 5 min and then subjected to centrifuge (Eppendorf Co.). The supernatant was collected and concentrated at 35° C. using cyclone. The residue was re-dissolved in 50 μL of moblie phase and 5 μL of the resulting solution was injected into LC/MS and analyzed.
(§10) In Tables 8 and 9, “iv” refers to a intravenous injection; “po” refers to a per oral; “AUC plasma” refers to an area under the plasma level-time curve; “Cmax” refers to a maximum plasma concentration; “Tmax” refers to a time to reach Cmax, “BA” refers to a bioavailability (%) according to Equation 2 below; “AUC Brain” refers to a area under the brain tissue level-time curve; and “AUCBrain/AUCPlasma” refers to a passage rate of the test compound to the brain.

[2] = biological target: hERG potassium ion channel (Homo sapiens, UniProt Q12809); assay: Inhibitory effect on hERG potassium ion channel (whole-cell patch clamp, HEK-hERG cells); assay type: cell-based; settings: for IC50: whole-cell patch clamp, room temperature, mean ± standard error, read-out: Inhibitory efficacy (IC50)
Sequence of hERG potassium ion channel (Q12809 whole entry): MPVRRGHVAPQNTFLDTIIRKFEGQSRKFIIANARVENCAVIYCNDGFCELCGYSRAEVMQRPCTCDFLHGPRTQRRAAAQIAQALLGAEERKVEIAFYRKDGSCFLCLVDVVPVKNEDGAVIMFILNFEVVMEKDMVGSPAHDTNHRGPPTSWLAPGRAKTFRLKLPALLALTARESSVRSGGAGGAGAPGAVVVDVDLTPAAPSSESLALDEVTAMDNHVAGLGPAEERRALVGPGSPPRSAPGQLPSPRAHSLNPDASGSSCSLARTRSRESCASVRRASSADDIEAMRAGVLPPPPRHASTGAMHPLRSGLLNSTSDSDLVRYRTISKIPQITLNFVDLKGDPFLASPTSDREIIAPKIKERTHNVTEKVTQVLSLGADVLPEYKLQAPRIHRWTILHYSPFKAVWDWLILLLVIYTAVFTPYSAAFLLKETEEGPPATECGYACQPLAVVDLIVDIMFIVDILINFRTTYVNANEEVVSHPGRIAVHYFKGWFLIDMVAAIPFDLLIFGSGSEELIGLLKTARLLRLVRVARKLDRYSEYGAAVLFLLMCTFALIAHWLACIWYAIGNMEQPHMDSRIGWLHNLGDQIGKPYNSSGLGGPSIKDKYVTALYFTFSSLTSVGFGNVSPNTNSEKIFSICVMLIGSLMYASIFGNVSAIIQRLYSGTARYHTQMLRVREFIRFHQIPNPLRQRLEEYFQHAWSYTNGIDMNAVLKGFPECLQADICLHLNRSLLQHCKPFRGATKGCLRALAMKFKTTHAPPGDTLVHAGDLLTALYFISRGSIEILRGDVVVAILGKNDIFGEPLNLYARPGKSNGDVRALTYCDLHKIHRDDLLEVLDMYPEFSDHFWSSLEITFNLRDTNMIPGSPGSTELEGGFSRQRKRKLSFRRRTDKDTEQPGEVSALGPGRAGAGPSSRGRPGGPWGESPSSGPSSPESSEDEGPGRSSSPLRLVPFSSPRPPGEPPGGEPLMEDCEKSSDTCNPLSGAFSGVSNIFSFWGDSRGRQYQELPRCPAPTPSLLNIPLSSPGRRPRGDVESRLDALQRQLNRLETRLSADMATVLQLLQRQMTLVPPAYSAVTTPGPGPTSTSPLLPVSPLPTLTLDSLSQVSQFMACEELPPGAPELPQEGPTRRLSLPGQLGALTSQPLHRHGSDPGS
Experimental: 1) Model Cell Line and Culture
A HEK-hERG cell line (lonGate Biosciences, Frankfurt, Germany Co.), which expresses hERG stably, was cultured in a DMEM (Dulbecco's Modified Eagle's Medium, Sigma Co., St. Louis, Mo., USA) supplemented with 10% fetal bovine serum (FBS, Cambrex, Walkersville, Md., USA) and 0.5 mg/mL zeocin (Invitrogen, Carlsbad, Calif., USA). The cell line was subcultured 5 days after culture when 80% confluency was reached.
2) Preparation of Test Solution and Test Drug
A solution within an electrode used to measure the potassium ion current is composed of 115 mM K-aspartate, 20 mM KCl, 10 mM EGTA, 10 mM HEPES, 2.5 mM tris-phosphocreatine, 0.1 mM Na2GTP and 5 mM MgCl2 (pH 7.2, 290 mOsm/Kg H2O). A solution for an extracellular perfusate is composed of 135 mM NaCl, 5 mM KCl, 1 mM MgCl2, 2 mM CaCl2, 10 mM glucose, and 10 mM HEPES (pH 7.2, 300 mOsm/Kg H2O).
Test drug solutions were prepared by respectively diluting the inventive compounds with extracellular perfusate to a desired concentration. The prepared test drug solution was placed in a 7-array polyethylene tube connected into a capillary column for gas chromatography and was dropped from the tip of the column at a height of 100 μm or less to the HEK-hERG cell line.
3) Measurement of Ion Current
Potassium ion current was measured using EPC10 (Instrutech Co., NY, USA) patch clamp amplifier in accordance with the conventional whole-cell patch clamp method. Electrode used in the measurement was a borosilicate glass capillary (external diameter: 1.65 mm, inside diameter: 1.2 mm, Corning 7052, Gamer Glass Co., Claremont, Calif., USA) prepared by using P-97 Flaming-Brown micropipette puller (Sutter Instrument Co.). The electrode was coated with Sylgard 184 (Dow Corning Co., Midland, Mich., USA) and trimmed with microforge (Narishige Co., Tokyo, Japan). […] A culture dish containing HEK-hERG cells was placed in an inverted microscope (Nikon Co.) and extracellular perfusate containing the inventive compound was perfused at a rate of 1-2 mL/min. The membrane capacitance and series resistance of cell membrane were calibrated by 80% or more and potassium ion current was measured at a sampling rate of 2 kHz and a low-pass filter of 2 kHz (−3 dB; 8-pole Bassel filter). The test is conducted at room temperature (21-24° C.).
4) Data analysis and Statistics
The results were analyzed using Pulse/Pulsefit (v9.0, HEKA Elcktronik, Lambrecht, Germany) and Igor macro. The results were given as meant standard error.

[3] = Passage test through the blood-brain barrier in mice (brain tissue); assay type: in vivo, ICR mice; settings: for Kp / Tmax: mouse; for Kp: brain; for Tmax / Cmax (brain): brain tissue
Experimental: as §1, §2, §3, §4, §5, §6, §7, §8, §9, §10

[4] = ICR (mice), SD (rats), mice and rats, Tables 8 and 9, read-out: passage ability through the blood-brain barrier compared with plasma
[5] = ICR, mice, 1.25 mg/kg, iv, read-out: AUCBrain/AUC Plasma
[6] = ICR, mice, 2.5 mg/kg, po, read-out: AUCBrain/AUC Plasma

Row | SMILES | AUC Brain ([1]; 1.25 mg/kg, iv) [ng·h/mL] | AUC Brain ([1]; 2.5 mg/kg, po) [ng·h/mL] | Cmax (brain) ([1]; 2.5 mg/kg, po) [ng/mL] | Tmax ([1]; 2.5 mg/kg, po) [h] | Kp ([1]; 1.25 mg/kg, iv) | Kp ([1]; 2.5 mg/kg, po) | inhibitory efficacy on hERG potassium ion channel (in words) [2] | IC50 [2] [µM] | Kp [3, 4] | Kp [3, 5] | Kp [3, 6] | Tmax ([3]; ICR, mice, 2.5 mg/kg, po) [h] | AUC Brain ([3]; mice, 1.25 mg/kg, iv) [ng·h/mL] | AUC Brain ([3]; mice, 2.5 mg/kg, po) [ng·h/mL] | Cmax (brain) ([3]; mice, 2.5 mg/kg, po) [ng/mL]
1 | CNc1ccc(C=Cc2cc3cc(OC)ccc3o2)cc1 [Compound 17, 5-methoxy-2-(4-methylaminostyryl)benzofuran] | 8740.33 | 11237.67 | 1406.67 | 1.67 | 7.6 | 21.8 | insignificant inhibitory efficacy | 47.9 ± 5.26 | ≥ 1 | 10.6 | 7.2 | 2 | 2525.45 | 2354.58 | 462.67
2 | COc1ccc2cc(C=Cc3ccc(N(C)C)cc3)oc2c1 [Compound 9, 6-methoxy-2-(4-dimethylaminostyryl)benzofuran] | 17939.63 | 15241.92 | 1309.00 | 2 | 11 | 16.8 | insignificant inhibitory efficacy | 52.1 ± 3.68 | ≥ 1 | 12.1 | 12.6 | 4 | 6101.86 | 8137.42 | 899.33
